# Laboratory results reported in patent US10160747B2, “Compounds and methods for kinase modulation, and indications therefor” (Plexxikon Inc., priority 2016, dated 2018).
# Legend:
# FLT3-ITD = molecular target: T1, FLT3-ITD (Homo sapiens, UniProt P36888); experiment: FLT3-ITD recombinant enzyme kinase assay (AlphaScreen); assay type: biochemical; settings: 8 pt; read-out: FLT3_ITD 8 pt: IC50
# T1 sequence (P36888 1-993): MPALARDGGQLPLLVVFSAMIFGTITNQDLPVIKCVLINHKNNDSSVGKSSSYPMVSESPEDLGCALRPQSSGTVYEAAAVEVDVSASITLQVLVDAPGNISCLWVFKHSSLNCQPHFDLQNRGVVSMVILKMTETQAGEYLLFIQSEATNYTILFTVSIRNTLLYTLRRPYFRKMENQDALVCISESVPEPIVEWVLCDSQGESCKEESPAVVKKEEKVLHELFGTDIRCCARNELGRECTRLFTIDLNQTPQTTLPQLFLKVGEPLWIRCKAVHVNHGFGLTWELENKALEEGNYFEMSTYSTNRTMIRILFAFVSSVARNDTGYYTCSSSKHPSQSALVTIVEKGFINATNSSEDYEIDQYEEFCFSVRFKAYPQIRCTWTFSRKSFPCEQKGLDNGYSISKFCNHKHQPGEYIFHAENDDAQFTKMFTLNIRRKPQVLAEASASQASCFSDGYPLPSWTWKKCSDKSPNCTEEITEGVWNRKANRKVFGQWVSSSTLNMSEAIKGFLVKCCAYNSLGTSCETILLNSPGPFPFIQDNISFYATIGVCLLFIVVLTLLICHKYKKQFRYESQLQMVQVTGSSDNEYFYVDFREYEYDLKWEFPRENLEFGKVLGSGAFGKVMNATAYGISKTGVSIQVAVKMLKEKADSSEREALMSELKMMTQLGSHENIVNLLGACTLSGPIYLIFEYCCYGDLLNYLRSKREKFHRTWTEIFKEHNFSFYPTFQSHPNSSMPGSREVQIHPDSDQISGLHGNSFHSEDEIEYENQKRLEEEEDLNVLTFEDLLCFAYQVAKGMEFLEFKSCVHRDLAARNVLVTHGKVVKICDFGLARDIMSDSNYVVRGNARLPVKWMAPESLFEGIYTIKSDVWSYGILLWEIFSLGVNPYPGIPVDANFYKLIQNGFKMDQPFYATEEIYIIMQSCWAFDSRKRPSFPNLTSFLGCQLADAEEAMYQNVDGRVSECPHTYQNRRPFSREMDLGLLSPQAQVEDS
# Outline: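 AlphaScreen proximity signal at 580 nm, from PY20 acceptor and streptavidin donor beads, measures tyrosine phosphorylation of 30 nM biotin-poly(Glu4-Tyr) peptide by recombinant kinase. ATP: 10 μM (FLT3 mutants), 100 μM (c-KIT). IC50 from loss of signal.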
# [1] = tested on: MOLM-14 F691L (endogenous FLT3 ITD and transfected FLT3 F691L); experiment: MOLM-14 F691L cell proliferation assay (CellTiter-Glo); assay type: cell-based; settings: Homo sapiens, MOLM-14, 72 h; 3 d growth, GMean
# Outline: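 Three-day proliferation at 37 °C/5% CO2 of FLT3-ITD MOLM-14 lines with D835Y or F691L mutation, seeded 1×10^4 per well. Compounds at eight points, top 1 μM final, 0.2% DMSO. ATP luminescence (CellTiter-Glo) gives IC50.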
SMILES,IC50 (FLT3-ITD),IC50 [1]
"Cn1cnc(Nc2ncc(-c3ccc(CC(=O)Nc4cc(C(F)(F)F)ccn4)cc3F)cn2)c1 [Compound P-0018, 2-[3-fluoro-4-[2-[(1-methylimidazol-4-yl)amino]pyrimidin-5-yl]phenyl]-N-[4-(trifluoromethyl)-2-pyridyl]acetamide]",0.0001 to 10 µM,–
"COCCn1cc(Nc2ncc(-c3ccc(CC(=O)Nc4cnc(Cl)c(C(F)(F)F)c4)c(F)c3)cn2)cn1 [Compound P-0266, N-[6-chloro-5-(trifluoromethyl)-3-pyridyl]-2-[2-fluoro-4-[2-[[1-(2-methoxyethyl)pyrazol-4-yl]amino]pyrimidin-5-yl]phenyl]acetamide]",0.0001 to 10 µM,0.0001 to 10 µM
"O=C(Cc1ccc(-c2cnc(Nc3cnn(C(F)F)c3)nc2)cc1)Nc1cncc(C(F)(F)F)c1 [Compound P-0209, 2-[4-[2-[[1-(difluoromethyl)pyrazol-4-yl]amino]pyrimidin-5-yl]phenyl]-N-[5-(trifluoromethyl)-3-pyridyl]acetamide]",0.0001 to 10 µM,0.0001 to 10 µM
"CCn1cc(Nc2ncc(-c3ccc(CC(=O)Nc4cnc(Cl)c(C(F)(F)F)c4)c(F)c3)cn2)cn1 [Compound P-0260, N-[6-chloro-5-(trifluoromethyl)-3-pyridyl]-2-[4-[2-[(1-ethylpyrazol-4-yl)amino]pyrimidin-5-yl]-2-fluoro-phenyl]acetamide]",0.0001 to 10 µM,0.0001 to 10 µM
"Cn1cc(Nc2ncc(-c3ccc(CC(=O)Nc4cc(C(F)(F)F)ccn4)cc3F)cn2)cn1 [Compound P-0017, 2-[3-fluoro-4-[2-[(1-methylpyrazol-4-yl)amino]pyrimidin-5-yl]phenyl]-N-[4-(trifluoromethyl)-2-pyridyl]acetamide]",0.0001 to 10 µM,0.0001 to 10 µM
"O=C(Cc1ccc(-c2cnc(Nc3cnn(C4CC4)c3)nc2)cc1F)Nc1ccc(C(F)(F)F)cn1 [Compound P-0243, 2-[4-[2-[(1-cyclopropylpyrazol-4-yl)amino]pyrimidin-5-yl]-2-fluoro-phenyl]-N-[5-(trifluoromethyl)-2-pyridyl]acetamide]",0.0001 to 10 µM,0.0001 to 10 µM
"O=C(Cc1cc(F)c(-c2cnc(Nc3cnn(C(F)F)c3)nc2)cc1F)Nc1cc(C(F)(F)F)ccn1 [Compound P-0021, 2-[4-[2-[[1-(difluoromethyl)pyrazol-4-yl]amino]pyrimidin-5-yl]-2,5-difluoro-phenyl]-N-[4-(trifluoromethyl)-2-pyridyl]acetamide]",0.0001 to 10 µM,–
"CCn1cc(Nc2ncc(-c3cc(F)c(CC(=O)Nc4cnc(OC)c(C(F)(F)F)c4)cc3F)cn2)cn1 [Compound P-0247, 2-[4-[2-[(1-ethylpyrazol-4-yl)amino]pyrimidin-5-yl]-2,5-difluoro-phenyl]-N-[6-methoxy-5-(trifluoromethyl)-3-pyridyl]acetamide]",–,0.0001 to 10 µM
"COc1ncc(NC(=O)Cc2cc(F)c(-c3cnc(Nc4cnn(C)c4)nc3)cc2F)cc1C(F)(F)F [Compound P-0208, 2-[2,5-difluoro-4-[2-[(1-methylpyrazol-4-yl)amino]pyrimidin-5-yl]phenyl]-N-[6-methoxy-5-(trifluoromethyl)-3-pyridyl]acetamide]",–,0.0001 to 10 µM
"COc1ncc(NC(=O)Cc2ccc(-c3cnc4[nH]c(-c5ccnc(C#N)c5)cc4c3)cc2F)cc1C(F)(F)F [Compound P-0013, 2-[4-[2-(2-cyano-4-pyridyl)-1H-pyrrolo[2,3-b]pyridin-5-yl]-2-fluoro-phenyl]-N-[6-methoxy-5-(trifluoromethyl)-3-pyridyl]acetamide]",–,0.0001 to 10 µM
"Cn1cnc(Nc2ncc(-c3cc(F)c(CC(=O)Nc4cc(C(F)(F)F)ccn4)cc3F)cn2)c1 [Compound P-0020, 2-[2,5-difluoro-4-[2-[(1-methylimidazol-4-yl)amino]pyrimidin-5-yl]phenyl]-N-[4-(trifluoromethyl)-2-pyridyl]acetamide]",0.0001 to 10 µM,–
"COc1ncc(NC(=O)Cc2ccc(-c3cnc4[nH]c(-c5cnn(C(F)F)c5)cc4c3)cc2F)cc1C(F)(F)F [Compound P-0015, 2-[4-[2-[1-(difluoromethyl)pyrazol-4-yl]-1H-pyrrolo[2,3-b]pyridin-5-yl]-2-fluoro-phenyl]-N-[6-methoxy-5-(trifluoromethyl)-3-pyridyl]acetamide]",–,0.0001 to 10 µM
"CCn1cc(Nc2ncc(-c3cc(F)c(CC(=O)Nc4cnc(C)c(C(F)(F)F)c4)cc3F)cn2)cn1 [Compound P-0249, 2-[4-[2-[(1-ethylpyrazol-4-yl)amino]pyrimidin-5-yl]-2,5-difluoro-phenyl]-N-[6-methyl-5-(trifluoromethyl)-3-pyridyl]acetamide]",–,0.0001 to 10 µM
"CCn1cc(Nc2ncc(-c3ccc(CC(=O)Nc4cnc(C)c(C(F)(F)F)c4)cc3F)cn2)cn1 [Compound P-0248, 2-[4-[2-[(1-ethylpyrazol-4-yl)amino]pyrimidin-5-yl]-3-fluoro-phenyl]-N-[6-methyl-5-(trifluoromethyl)-3-pyridyl]acetamide]",–,0.0001 to 10 µM

# Now from value to compound:
IC50 (FLT3-ITD),IC50 [1],SMILES
0.0001 to 10 µM,0.0001 to 10 µM,"Cc1ncc(NC(=O)Cc2ccc(-c3cnc4[nH]c(C#CC(C)(C)O)cc4c3)cc2)cc1C(F)(F)F [Compound P-0220, 2-[4-[2-(3-hydroxy-3-methyl-but-1-ynyl)-1H-pyrrolo[2,3-b]pyridin-5-yl]phenyl]-N-[6-methyl-5-(trifluoromethyl)-3-pyridyl]acetamide]"
0.0001 to 10 µM,0.0001 to 10 µM,"COc1ncc(NC(=O)Cc2ccc(-c3cnc4[nH]nc(N)c4c3)cc2)cc1C(F)(F)F [Compound P-0216, 2-(4-(3-amino-1H-pyrazolo[3,4-b]pyridin-5-yl)phenyl)-N-(6-methoxy-5-(trifluoromethyl)pyridin-3-yl)acetamide]"
0.0001 to 10 µM,0.0001 to 10 µM,"COc1ncc(NC(=O)Cc2ccc(-c3cnc4[nH]nc(NC(=O)C(F)(F)F)c4c3)cc2)cc1C(F)(F)F [Compound P-0215, 2,2,2-trifluoro-N-[5-[4-[2-[[6-methoxy-5-(trifluoromethyl)-3-pyridyl]amino]-2-oxo-ethyl]phenyl]-1H-pyrazolo[3,4-b]pyridin-3-yl]acetamide]"
–,0.0001 to 10 µM,"CCn1cc(Nc2ncc(-c3ccc(CC(=O)Nc4cnc(OC)c(C(F)(F)F)c4)cc3F)cn2)cn1 [Compound P-0246, 2-[4-[2-[(1-ethylpyrazol-4-yl)amino]pyrimidin-5-yl]-3-fluoro-phenyl]-N-[6-methoxy-5-(trifluoromethyl)-3-pyridyl]acetamide]"
–,0.0001 to 10 µM,"COc1ncc(NC(=O)Cc2ccc(-c3cnc4[nH]c(-c5ccc(C#N)nc5)cc4c3)c(F)c2)cc1C(F)(F)F [Compound P-0014, 2-[4-[2-(6-cyano-3-pyridyl)-1H-pyrrolo[2,3-b]pyridin-5-yl]-3-fluoro-phenyl]-N-[6-methoxy-5-(trifluoromethyl)-3-pyridyl]acetamide]"
–,0.0001 to 10 µM,"COc1ncc(NC(=O)Cc2ccc(-c3cnc4[nH]nc(C5CC5)c4c3)cc2F)cc1C(F)(F)F [Compound P-0262, 2-[4-(3-cyclopropyl-1H-pyrazolo[3,4-b]pyridin-5-yl)-2-fluoro-phenyl]-N-[6-methoxy-5-(trifluoromethyl)-3-pyridyl]acetamide]"
–,0.0001 to 10 µM,"COc1ncc(NC(=O)Cc2ccc(-c3cnc4[nH]c(-c5ccnc(C#N)c5)cc4c3)c(F)c2)cc1C(F)(F)F [Compound P-0016, 2-[4-[2-(2-cyano-4-pyridyl)-1H-pyrrolo[2,3-b]pyridin-5-yl]-3-fluoro-phenyl]-N-[6-methoxy-5-(trifluoromethyl)-3-pyridyl]acetamide]"
–,0.0001 to 10 µM,"COc1ncc(NC(=O)Cc2ccc(-c3cnc4[nH]nc(C5CC5)c4c3)cc2)cc1C(F)(F)F [Compound P-0263, 2-[4-(3-cyclopropyl-1H-pyrazolo[3,4-b]pyridin-5-yl)phenyl]-N-[6-methoxy-5-(trifluoromethyl)-3-pyridyl]acetamide]"
–,0.0001 to 10 µM,"COc1ncc(NC(=O)Cc2ccc(-c3cnc4[nH]c(-c5ccc(C#N)nc5)cc4c3)cc2F)cc1C(F)(F)F [Compound P-0011, 2-[4-[2-(6-cyano-3-pyridyl)-1H-pyrrolo[2,3-b]pyridin-5-yl]-2-fluoro-phenyl]-N-[6-methoxy-5-(trifluoromethyl)-3-pyridyl]acetamide]"
